Reference: patent US8198419B2, “Glycorandomization and production of novel erythromycin analogs” (Wisconsin Alumni Research Foundation, priority 2001, dated 2012)
“Also recorded” adds a separate entry of the source. Where two headings read alike, the source gives them in different places.

Columns and labels:
[1] = tested on: DNA; details: estimated; unit not given; cited from earlier work
[2] = target: T1, GtfE (Amycolatopsis orientalis, UniProt Q9AFC6); assay: GtfE steady-state kinetics and transfer of NDP-glucose derivatives to heptapeptide aglycone; type: biochemical; details: for Km: NDP-sugar donor varied, acceptor vancomycin aglycone held at 1 mM; for Km / kcat: pH 9; for kcat: acceptor vancomycin aglycone 1 mM; for recognition / transfer of the sugar by GtfE: vancomycin and teicoplanin aglycone acceptors, HPLC and mass spectrometry; for catalytic efficiency relative to native substrate: vancomycin aglycone as acceptor
T1 construct: made in house; host or cells: Escherichia coli
T1 sequence (Q9AFC6 1-409): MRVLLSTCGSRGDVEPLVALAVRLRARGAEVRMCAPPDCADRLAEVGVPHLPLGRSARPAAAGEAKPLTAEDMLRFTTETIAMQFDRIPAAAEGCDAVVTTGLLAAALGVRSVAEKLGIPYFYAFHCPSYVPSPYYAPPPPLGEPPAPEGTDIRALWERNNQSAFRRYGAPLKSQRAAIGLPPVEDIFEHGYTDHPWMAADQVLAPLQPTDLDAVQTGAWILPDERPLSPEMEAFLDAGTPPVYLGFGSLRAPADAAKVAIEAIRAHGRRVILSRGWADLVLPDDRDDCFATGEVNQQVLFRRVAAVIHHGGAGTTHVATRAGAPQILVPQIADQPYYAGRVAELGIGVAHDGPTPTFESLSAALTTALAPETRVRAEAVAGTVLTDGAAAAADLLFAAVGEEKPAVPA
Method: (The acceptor substrate, the vancomycin aglycone, was held constant at 1 mM in each experiment.)
Biochemistry 2001; 40(15):4745-55; and Solenberg et al. Production of hybrid glycopeptide antibiotics in vitro and in Streptomyces toyocaensis. Chem Biol 1997; 4(3):195-202. Reactions were carried out and analyzed by HPLC as previously described. […] Each 100 μL reaction contained either 1 mM vancomycin aglycone or 0.5 mM teicoplanin aglycone. […] Reactions with GtfD also contained 2 mM UDP-L-4-epi-vancosamine. 50 μL time points were taken at 0 and 20 h, and quenched with 9 vol methanol. After centrifugation, the supernatants were dried and resuspended in water for HPLC analysis. All glycosylation reactions were monitored by UV (285 nm) using a Vydac C18 small pore column with a linear gradient of 0-20 percent acetonitrile in water with 0.1 percent trifluoracetic acid. The molecular weight of new products was analyzed by Maldi-TOF mass spectrometry using a Perseptive Biosystems Voyager-DE STR mass spectrometer.
All reactions were carried out with 1 mM vancomycin aglycone as the acceptor substrate. […] Each experiment was performed in duplicate or triplicate.

[3] = target: thymidylyltransferase (rmlA-encoded Ep) (Salmonella typhimurium, UniProt P26393); details: Lindquist et al. 1993, cited from earlier work
[4] = read-out: Km, forward direction

Chain of thymidylyltransferase (rmlA-encoded Ep) (P26393 whole entry): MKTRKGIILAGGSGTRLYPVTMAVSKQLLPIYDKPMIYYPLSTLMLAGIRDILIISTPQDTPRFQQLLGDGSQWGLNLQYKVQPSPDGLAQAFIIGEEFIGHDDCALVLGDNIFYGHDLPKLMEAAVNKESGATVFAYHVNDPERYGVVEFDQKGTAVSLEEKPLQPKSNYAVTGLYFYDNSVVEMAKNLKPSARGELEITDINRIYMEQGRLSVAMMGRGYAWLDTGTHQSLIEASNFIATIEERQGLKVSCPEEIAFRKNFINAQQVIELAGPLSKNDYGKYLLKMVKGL

Compound	Km [2] [µM]	kcat [2] [s⁻¹]	further results
CCN[C@H]1CO[C@@H](O[C@H]2[C@H](O[C@H]3C#CC=CC#C[C@@]4(O)CC(=O)C(NC(=O)OC)=C3/C4=C\CSSSC)O[C@H](C)[C@@H](NO[C@H]3C[C@H](O)[C@H](SC(=O)c4c(C)c(I)c(O[C@@H]5O[C@@H](C)[C@H](O)[C@@H](OC)[C@H]5O)c(OC)c4OC)[C@@H](C)O3)[C@@H]2O)C[C@@H]1OC (stereo in doubt) [calicheamicin, calicheamicin γ1^I]	–	–	affinity (DNA binding) [1]: 10^6-10^8
Cc1cn(C2CC(O)C(COP(=O)(O)OP(=O)(O)OC3OC(CO)C(O)C(N)C3O)O2)c(=O)[nH]c1=O [TDP-3-NH2-glucose, Thymidine 5′-(3-amino-3-deoxy-α-D-glucopyranosyl diphosphate)]	720 ± 60	0.06 ± 0.0033	–
Cc1cn([C@H]2C[C@H](O)[C@@H](COP(=O)(O)OP(=O)(O)O[C@H]3O[C@H](CO)[C@@H](N)[C@H](O)[C@H]3O)O2)c(=O)[nH]c1=O [TDP-4-NH2-glucose, Thymidine 5′-(4-amino-4-deoxy-α-D-glucopyranosyl diphosphate)]	1100 ± 100	0.0217 ± 0.0017	–
Cc1cn([C@H]2C[C@H](O)[C@@H](COP(=O)(O)OP(=O)(O)O[C@H]3O[C@H](CO)[C@@H](O)[C@H](O)[C@H]3O)O2)c(=O)[nH]c1=O [TDP-glucose, Thymidine 5′-(α-D-glucopyranosyl diphosphate), reference compound]	620 ± 90	0.483 ± 0.033	Km ([3]; read-out: Km, reverse reaction): 83 µM
NC1C(OP(=O)(O)OP(=O)(O)OCC2OC(n3ccc(=O)[nH]c3=O)C(O)C2O)OC(CO)C(O)C1O [UDP-2-NH2-glucose, Uridine 5′-(2-amino-2-deoxy-α-D-glucopyranosyl diphosphate)]	790 ± 80	0.045 ± 0.0033	–
[N-]=[N+]=NC1C(OP(=O)(O)OP(=O)(O)OCC2OC(n3ccc(=O)[nH]c3=O)C(O)C2O)OC(CO)C(O)C1O (centres unmarked) [UDP-2-azido-glucose]	–	–	recognition / transfer of the sugar by GtfE [2]: inadequate for transfer
O=c1ccn(C2OC(COP(=O)(O)OP(=O)(O)OC3OC(CO)C(O)C(O)C3F)C(O)C2O)c(=O)[nH]1 (centres unmarked) [UDP-2-fluoro-glucose]	–	–	recognition / transfer of the sugar by GtfE [2]: inadequate for transfer; also recorded: not recognized
O=c1ccn([C@@H]2O[C@H](COP(=O)(O)OP(=O)(O)O[C@H]3O[C@H](CCl)[C@@H](O)[C@H](O)[C@H]3O)[C@@H](O)[C@H]2O)c(=O)[nH]1 [UDP-6-Cl-glucose, UDP-6-chloro-glucose]	21000 ± 6000	0.005 ± 0.0017	catalytic efficiency relative to native substrate [2]: less than 0.1%
NC[C@H]1O[C@H](OP(=O)(O)OP(=O)(O)OC[C@H]2O[C@@H](n3ccc(=O)[nH]c3=O)[C@H](O)[C@@H]2O)[C@H](O)[C@@H](O)[C@@H]1O [UDP-6-NH2-glucose, Uridine 5′-(6-amino-6-deoxy-α-D-glucopyranosyl diphosphate)]	1200 ± 200	0.025 ± 0.0033	–
[N-]=[N+]=NCC1OC(OP(=O)(O)OP(=O)(O)OC[C@H]2O[C@@H](n3ccc(=O)[nH]c3=O)[C@H](O)[C@@H]2O)C(O)C(O)C1O (some centres unmarked) [UDP-6-azido-glucose]	–	–	recognition / transfer of the sugar by GtfE [2]: inadequate for transfer
O=C[C@H](O)[C@@H](O)[C@H](O)CO [UDP-xylose, UDP xylose, reference compound]	–	–	catalytic efficiency relative to native substrate [2]: about 10%
Cc1cn([C@H]2C[C@H](O)[C@@H](COP(=O)(O)OP(=O)(O)OP(=O)(O)O)O2)c(=O)[nH]c1=O [dTTP]	–	–	Km [3, 4]: 20 µM
O=P(O)(O)OP(=O)(O)O [diphosphate]	–	–	Km ([3]; read-out: Km, reverse reaction): 150 µM
O=P(O)(O)O[C@H]1O[C@H](CO)[C@@H](O)[C@H](O)[C@H]1O [α-D-glucose-1-phosphate]	–	–	Km [3, 4]: 110 µM
TDP-2-fluoro-glucose	–	–	recognition / transfer of the sugar by GtfE [2]: not detectably processed
